Results reported in PubChem BioAssay AID1259407 (Chemical Carcinogenesis Research Information System (CCRIS), 2018).
Calls of active or inactive are those of the source. The rule behind the calls is not given here.

System: CCRIS mutagenicity, Ames/micronucleus/aberration tests
Assay: CCRIS mutagenicity studies
[1] = Test System: AMES SALMONELLA TYPHIMURIUM, Strain/Indicator: TA98, Metabolic Activation: NONE, Method: PREINCUBATION
[2] = Test System: AMES SALMONELLA TYPHIMURIUM, Strain/Indicator: TA100, Metabolic Activation: NONE, Method: PREINCUBATION
[3] = Test System: AMES SALMONELLA TYPHIMURIUM, Strain/Indicator: TA98, Metabolic Activation: NONE, Method: STANDARD PLATE
[4] = Test System: AMES SALMONELLA TYPHIMURIUM, Strain/Indicator: TA98, Metabolic Activation: RAT, LIVER, S-9, AROCLOR 1254, Method: STANDARD PLATE
[5] = Test System: AMES SALMONELLA TYPHIMURIUM, Strain/Indicator: TA100, Metabolic Activation: NONE, Method: STANDARD PLATE
[6] = Test System: AMES SALMONELLA TYPHIMURIUM, Strain/Indicator: TA100, Metabolic Activation: RAT, LIVER, S-9, AROCLOR 1254, Method: STANDARD PLATE
[7] = Test System: AMES SALMONELLA TYPHIMURIUM, Strain/Indicator: TA102, Metabolic Activation: NONE, Method: PREINCUBATION

## Cc1ccc(S(=O)(=O)O)cc1C
Test System: AMES SALMONELLA TYPHIMURIUM, Strain/Indicator: TA98, Metabolic Activation: HAMSTER LIVER S-9, AROCLOR 1254 (10%), Method: PREINCUBATION
  mutagenic call: inactive; negative
Test System: AMES SALMONELLA TYPHIMURIUM, Strain/Indicator: TA98, Metabolic Activation: HAMSTER, LIVER, S-9, AROCLOR 1254 (10%), Method: PREINCUBATION
  mutagenic call: inactive; negative
[1]
  mutagenic call: inactive; negative
Test System: AMES SALMONELLA TYPHIMURIUM, Strain/Indicator: TA98, Metabolic Activation: RAT LIVER S-9, AROCLOR 1254 (10%), Method: PREINCUBATION
  mutagenic call: inactive; negative
Test System: AMES SALMONELLA TYPHIMURIUM, Strain/Indicator: TA98, Metabolic Activation: RAT, LIVER, S-9, AROCLOR 1254 (10%), Method: PREINCUBATION
  mutagenic call: inactive; negative
Test System: AMES SALMONELLA TYPHIMURIUM, Strain/Indicator: TA100, Metabolic Activation: HAMSTER LIVER S-9, AROCLOR 1254 (10%), Method: PREINCUBATION
  mutagenic call: inactive; negative
Test System: AMES SALMONELLA TYPHIMURIUM, Strain/Indicator: TA100, Metabolic Activation: HAMSTER, LIVER, S-9, AROCLOR 1254 (10%), Method: PREINCUBATION
  mutagenic call: inactive; negative
[2]
  mutagenic call: inactive; negative
Test System: AMES SALMONELLA TYPHIMURIUM, Strain/Indicator: TA100, Metabolic Activation: RAT LIVER S-9, AROCLOR 1254 (10%), Method: PREINCUBATION
  mutagenic call: inactive; negative
Test System: AMES SALMONELLA TYPHIMURIUM, Strain/Indicator: TA100, Metabolic Activation: RAT, LIVER, S-9, AROCLOR 1254 (10%), Method: PREINCUBATION
  mutagenic call: inactive; negative
Test System: AMES SALMONELLA TYPHIMURIUM, Strain/Indicator: TA1535, Metabolic Activation: HAMSTER LIVER S-9, AROCLOR 1254 (10%), Method: PREINCUBATION
  mutagenic call: inactive; negative
Test System: AMES SALMONELLA TYPHIMURIUM, Strain/Indicator: TA1535, Metabolic Activation: HAMSTER, LIVER, S-9, AROCLOR 1254 (10%), Method: PREINCUBATION
  mutagenic call: inactive; negative
Test System: AMES SALMONELLA TYPHIMURIUM, Strain/Indicator: TA1535, Metabolic Activation: NONE, Method: PREINCUBATION
  mutagenic call: inactive; negative
Test System: AMES SALMONELLA TYPHIMURIUM, Strain/Indicator: TA1535, Metabolic Activation: RAT LIVER S-9, AROCLOR 1254 (10%), Method: PREINCUBATION
  mutagenic call: inactive; negative
Test System: AMES SALMONELLA TYPHIMURIUM, Strain/Indicator: TA1535, Metabolic Activation: RAT, LIVER, S-9, AROCLOR 1254 (10%), Method: PREINCUBATION
  mutagenic call: inactive; negative
Test System: AMES SALMONELLA TYPHIMURIUM, Strain/Indicator: TA1537, Metabolic Activation: HAMSTER LIVER S-9, AROCLOR 1254 (10%), Method: PREINCUBATION
  mutagenic call: inactive; negative
Test System: AMES SALMONELLA TYPHIMURIUM, Strain/Indicator: TA1537, Metabolic Activation: HAMSTER, LIVER, S-9, AROCLOR 1254 (10%), Method: PREINCUBATION
  mutagenic call: inactive; negative
Test System: AMES SALMONELLA TYPHIMURIUM, Strain/Indicator: TA1537, Metabolic Activation: NONE, Method: PREINCUBATION
  mutagenic call: inactive; negative
Test System: AMES SALMONELLA TYPHIMURIUM, Strain/Indicator: TA1537, Metabolic Activation: RAT LIVER S-9, AROCLOR 1254 (10%), Method: PREINCUBATION
  mutagenic call: inactive; negative
Test System: AMES SALMONELLA TYPHIMURIUM, Strain/Indicator: TA1537, Metabolic Activation: RAT, LIVER, S-9, AROCLOR 1254 (10%), Method: PREINCUBATION
  mutagenic call: inactive; negative
Test System: MOUSE LYMPHOMA, Strain/Indicator: L5178Y (TK+/TK-), Metabolic Activation: NONE, Method: SUSPENSION/PLATE
  mutagenic call: inactive; negative

## CCOc1cc(N=Nc2ccc(N(CC)CC)cc2)ccc1N=Nc1c(S(=O)(=O)O)cc2ccc(N)cc2c1O
[3]
  mutagenic call: inactive; negative
[4]
  mutagenic call: active; positive
[5]
  mutagenic call: inactive; negative
[6]
  mutagenic call: inactive; negative
Test System: AMES SALMONELLA TYPHIMURIUM, Strain/Indicator: TA1538, Metabolic Activation: NONE, Method: STANDARD PLATE
  mutagenic call: inactive; negative
Test System: AMES SALMONELLA TYPHIMURIUM, Strain/Indicator: TA1538, Metabolic Activation: RAT, LIVER, S-9, AROCLOR 1254, Method: STANDARD PLATE
  mutagenic call: active; positive

## Oc1cccc2c1[nH]c1ccccc12
Test System: CHINESE HAMSTER OVARY, Strain/Indicator: CHO-K1-BH4 (HGPRT)/6-THIOGUANINE, Metabolic Activation: RAT, LIVER, S-9, AROCLOR (4%)
  mutagenic call: active; positive

## CC(N)[13C](=O)O (stereo unspecified)
Test System: AMES SALMONELLA TYPHIMURIUM, Strain/Indicator: TA97, Metabolic Activation: NONE, Method: PREINCUBATION
  mutagenic call: inactive; negative
Test System: AMES SALMONELLA TYPHIMURIUM, Strain/Indicator: TA97, Metabolic Activation: RAT, LIVER, S-9, AROCLOR 1254, Method: PREINCUBATION
  mutagenic call: inactive; negative
[7]
  mutagenic call: inactive; negative
Test System: AMES SALMONELLA TYPHIMURIUM, Strain/Indicator: TA102, Metabolic Activation: RAT, LIVER, S-9, AROCLOR 1254, Method: PREINCUBATION
  mutagenic call: inactive; negative

## CCCCCCCC/C=C\CCCCCCCCCCCC(=O)NCCCCCCCCCCCCCCCCCC
Test System: AMES SALMONELLA TYPHIMURIUM, Strain/Indicator: TA97, Metabolic Activation: NONE, Method: STANDARD PLATE
  mutagenic call: inactive; negative
Test System: AMES SALMONELLA TYPHIMURIUM, Strain/Indicator: TA97, Metabolic Activation: S-9, Method: STANDARD PLATE
  mutagenic call: inactive; negative
[3]
  mutagenic call: inactive; negative
Test System: AMES SALMONELLA TYPHIMURIUM, Strain/Indicator: TA98, Metabolic Activation: S-9, Method: STANDARD PLATE
  mutagenic call: inactive; negative
[5]
  mutagenic call: inactive; negative
Test System: AMES SALMONELLA TYPHIMURIUM, Strain/Indicator: TA100, Metabolic Activation: S-9, Method: STANDARD PLATE
  mutagenic call: inactive; negative
Test System: AMES SALMONELLA TYPHIMURIUM, Strain/Indicator: TA102, Metabolic Activation: NONE, Method: STANDARD PLATE
  mutagenic call: inactive; negative
Test System: AMES SALMONELLA TYPHIMURIUM, Strain/Indicator: TA102, Metabolic Activation: S-9, Method: STANDARD PLATE
  mutagenic call: inactive; negative
Test System: E.COLI, Strain/Indicator: WP2 (PKM101), Metabolic Activation: NONE, Method: STANDARD PLATE
  mutagenic call: inactive; negative
Test System: E.COLI, Strain/Indicator: WP2 (PKM101), Metabolic Activation: S-9, Method: STANDARD PLATE
  mutagenic call: inactive; negative

## O=c1[nH]c2c(c(=O)n1C1CCCCC1)CCC2
Test System: AMES SALMONELLA TYPHIMURIUM, Strain/Indicator: TA97, Metabolic Activation: RAT, LIVER, S-9, AROCLOR 1254, Method: STANDARD PLATE
  mutagenic call: inactive; negative
Test System: AMES SALMONELLA TYPHIMURIUM, Strain/Indicator: TA97, Metabolic Activation: RAT, LIVER, S-9, AROCLOR 1254 AND NADPH, Method: STANDARD PLATE
  mutagenic call: inactive; negative
[4]
  mutagenic call: inactive; negative
Test System: AMES SALMONELLA TYPHIMURIUM, Strain/Indicator: TA98, Metabolic Activation: RAT, LIVER, S-9, AROCLOR 1254 AND NADPH, Method: STANDARD PLATE
  mutagenic call: inactive; negative
[6]
  mutagenic call: inactive; negative
Test System: AMES SALMONELLA TYPHIMURIUM, Strain/Indicator: TA100, Metabolic Activation: RAT, LIVER, S-9, AROCLOR 1254 AND NADPH, Method: STANDARD PLATE
  mutagenic call: inactive; negative
Test System: AMES SALMONELLA TYPHIMURIUM, Strain/Indicator: TA102, Metabolic Activation: RAT, LIVER, S-9, AROCLOR 1254, Method: STANDARD PLATE
  mutagenic call: inactive; negative
Test System: AMES SALMONELLA TYPHIMURIUM, Strain/Indicator: TA102, Metabolic Activation: RAT, LIVER, S-9, AROCLOR 1254 AND NADPH, Method: STANDARD PLATE
  mutagenic call: inactive; negative

## Cn1cnc(-c2ccccc2)c1N=O
[5]
  mutagenic call: active; positive

## CC(O)C(C)[N+](=O)[O-] (stereo unspecified)
[1]
  mutagenic call: inactive; negative
Test System: AMES SALMONELLA TYPHIMURIUM, Strain/Indicator: TA98, Metabolic Activation: RAT, LIVER, S-9, AROCLOR, Method: PREINCUBATION
  mutagenic call: inactive; negative
[2]
  mutagenic call: inactive; negative
[7]
  mutagenic call: inactive; negative
Test System: AMES SALMONELLA TYPHIMURIUM, Strain/Indicator: TA102, Metabolic Activation: RAT, LIVER, S-9, AROCLOR, Method: PREINCUBATION
  mutagenic call: inactive; negative
